Key:
in vitro [1] = type: cell-based; details: human
Method: Example C: CC50 MT4 Cytotoxicity of the compounds was determined in uninfected cells using the cell viability reagent in a similar fashion as described before for other cell types ([…] et al., Antimicrob Agents Chemother. 2008,52(2):655-65). […] Cells were cultured for 4-5 days at 37° C. Following the incubation, the cells were allowed to equilibrate to 25° C., and cell viability was determined by adding Cell-Titer Glo viability reagent. The mixture was incubated for 10 min, and the luminescence signal was quantified using an Envision plate reader. Untreated cell and cells treated at 2 μM puromycin (Sigma, St. Louis, MO) serve as 100% and 0% cell viability control, respectively. The percent of cell viability was calculated for each tested compound concentration relative to the 0% and 100% controls and the CC50 value was determined by non-linear regression as a compound concentration reducing the cell viability by 50%.

in vitro [2] = type: in vitro ADME; details: human, s9, pH 7.4
Method: Example D: GI S9 Stability […] The S9 metabolic reactions were initiated by the addition of the substrates to the S9 reaction mixture to a final concentration of 2 μM. […] Aliquots ([…]) of the diluted supernatant were analyzed on a Thermo Q-Exactive mass spectrometer as described below. Example F: Liquid Chromatography/Mass Spectroscopy Methods for S9 and Plasma Stability Quantification of test compounds, Reference Compound A (S9 stability assay nucleoside metabolite), and controls was performed by analyte/internal standard peak area ratio (PAR) values measured on a Thermo Q-Exactive mass spectrometer coupled to a Dionex UltiMate 3000 HPLC with a Leap Technologies HTC PAL autosampler. […] Mobile phase A consisted of 0.1% (v/v) formic acid in water. Mobile phase B consisted of 0.1% (v/v) formic acid in acetonitrile. Elution of analytes was achieved by a series of linear gradients of acetonitrile in water containing 0.10% (v/v) formic acid. The mass spectrometer was calibrated on a weekly basis and mass tolerance of 5 ppm was used.

SARS-CoV2-NLuc = assay: microbe, parasite or virus in culture; type: cell-based, SARS Coronavirus 2; details: Severe acute respiratory syndrome coronavirus 2, 48 h, read-out: SARS-CoV2 EC50 (nM)
RSV-Luc5 = assay: microbe, parasite or virus in culture; type: cell-based; details: human respiratory syncytial virus, NHBE, 72 h, read-out: RSV NHBE EC50 (nM)
[3] = tested on: Caco-2 cells (clone C2BBe1); details: human, Caco-2
in vitro [4] = details: human, plasma

Question: With CC(C)OC(=O)OC[C@H]1O[C@@](C#N)(c2ccc3c(N)ncnn23)C2OC(=O)CCC(=O)OC21 (stereo partly drawn) [Compound C1, ((7R,9R)-9-(4-aminopyrrolo[2,1-f][1,2,4]triazin-7-yl)-9-cyano-2,5-dioxooctahydrofuro[3,4-b][1,4]dioxocin-7-yl)methyl isopropyl carbonate] as the compound, how does the CC50 (in vitro [1]) read?
Answer: > 50 µM

Question: What about the half-life at 2 μM (in vitro [2]) of the same compound?
Answer: 0.716 min

Question: For CC(C)OC(=O)OC[C@H]1O[C@@](C#N)(c2ccc3c(N)ncnn23)[C@@H]2OC(=O)CCCCCCC(=O)O[C@@H]21 [Compound C5, ((10aR,11R,13R,13aR)-13-(4-aminopyrrolo[2,1-f][1,2,4]triazin-7-yl)-13-cyano-2,9-dioxododecahydrofuro[3,4-b][1,4]dioxacyclododecin-11-yl)methyl isopropyl carbonate], which CC50 (in vitro [1]) is on record?
Answer: > 50 µM

Question: What about the half-life at 2 μM (in vitro [2]) of the same compound?
Answer: 0.754 min

Question: For N#C[C@@]1(c2ccc3c(N)ncnn23)O[C@H](CO)[C@H]2OC(=O)CCCC(=O)O[C@H]21 [Compound C10, (7aR,8R,10R,10aR)-8-(4-aminopyrrolo[2,1-f][1,2,4]triazin-7-yl)-10-(hydroxymethyl)-2,6-dioxooctahydro-2H-furo[3,4-b][1,4]dioxonine-8-carbonitrile], which CC50 (in vitro [1]) is on record?
Answer: > 50 µM

Question: And the half-life at 2 μM (in vitro [2])?
Answer: 0.768 min

Question: With CC1(C)[C@H]2CC[C@@](C)(C2)[C@H]1OC(=O)OC[C@H]1O[C@@](C#N)(c2ccc3c(N)ncnn23)[C@@H]2OC(=O)CCCC(=O)O[C@@H]21 [Compound C28, ((7aR,8R,10R,10aR)-10-(4-aminopyrrolo[2,1-f][1,2,4]triazin-7-yl)-10-cyano-2,6-dioxooctahydro-2H-furo[3,4-b][1,4]dioxonin-8-yl)methyl ((1S,2R,4S)-1,3,3-trimethylbicyclo[2.2.1]heptan-2-yl) carbonate] as the compound, how does the EC50 (SARS-CoV2-NLuc) read?
Answer: 21700 nM

Question: And the EC50 (RSV-Luc5)?
Answer: 7110 nM

Question: What about the CC50 (in vitro [1]) of the same compound?
Answer: 18 µM

Question: What about the half-life at 2 μM (in vitro [2]) of the same compound?
Answer: 0.595 min

Question: With CC1(C)CC(=O)O[C@H]2[C@@H](OC(=O)C1)[C@](C#N)(c1ccc3c(N)ncnn13)O[C@@H]2COC(=O)OC(C)(C)c1ccncc1 [Compound C34, ((7aR,8R,10R,10aR)-10-(4-aminopyrrolo[2,1-f][1,2,4]triazin-7-yl)-10-cyano-4,4-dimethyl-2,6-dioxooctahydro-2H-furo[3,4-b][1,4]dioxonin-8-yl)methyl (2-(pyridin-4-yl)propan-2-yl) carbonate] as the compound, how does the EC50 (SARS-CoV2-NLuc) read?
Answer: 8120 nM

Question: What about the EC50 (RSV-Luc5) of the same compound?
Answer: > 50000 nM

Question: And the CC50 (in vitro [1])?
Answer: > 50 µM

Question: And the half-life at 2 μM (in vitro [2])?
Answer: 44.7 min

Question: For CC1(C)CC(=O)O[C@H]2[C@@H](OC(=O)C1)[C@](C#N)(c1ccc3c(N)ncnn13)O[C@@H]2COC(=O)OCCN1CCOCC1 [Compound C36, ((7aR,8R,10R,10aR)-10-(4-aminopyrrolo[2,1-f][1,2,4]triazin-7-yl)-10-cyano-4,4-dimethyl-2,6-dioxooctahydro-2H-furo[3,4-b][1,4]dioxonin-8-yl)methyl (2-morpholinoethyl) carbonate], which EC50 (SARS-CoV2-NLuc) is on record?
Answer: > 50000 nM

Question: What about the EC50 (RSV-Luc5) of the same compound?
Answer: > 50000 nM

Question: What about the CC50 (in vitro [1]) of the same compound?
Answer: > 50 µM

Question: What about the half-life at 2 μM (in vitro [2]) of the same compound?
Answer: 31.6 min

Question: With CCC(CC)COC(=O)OC[C@H]1O[C@@](C#N)(c2ccc3c(N)ncnn23)[C@@H]2OC(=O)CC(C)(C)CC(=O)O[C@@H]21 [Compound C38, ((7aR,8R,10R,10aR)-10-(4-aminopyrrolo[2,1-f][1,2,4]triazin-7-yl)-10-cyano-4,4-dimethyl-2,6-dioxooctahydro-2H-furo[3,4-b][1,4]dioxonin-8-yl)methyl (2-ethylbutyl) carbonate] as the compound, how does the EC50 (SARS-CoV2-NLuc) read?
Answer: 38300 nM

Question: And the EC50 (RSV-Luc5)?
Answer: > 50000 nM

Question: And the CC50 (in vitro [1])?
Answer: 30.9 µM

Question: And the half-life at 2 μM (in vitro [2])?
Answer: 7.17 min

Question: What does the source list for COC(C)(C)COC(=O)OC[C@H]1O[C@@](C#N)(c2ccc3c(N)ncnn23)[C@@H]2OC(=O)CC(C)(C)CC(=O)O[C@@H]21 [Compound C39, ((7aR,8R,10R,10aR)-10-(4-aminopyrrolo[2,1-f][1,2,4]triazin-7-yl)-10-cyano-4,4-dimethyl-2,6-dioxooctahydro-2H-furo[3,4-b][1,4]dioxonin-8-yl)methyl (2-methoxy-2-methylpropyl) carbonate]?
Answer: EC50 (SARS-CoV2-NLuc): 8580 nM; EC50 (RSV-Luc5): > 50000 nM; CC50 (in vitro [1]): > 50 µM; half-life at 2 μM (in vitro [2]): 9.97 min; Caco2 A to B [3]: 2; Caco2 B to A [3]: 7.17

Question: Which EC50 (SARS-CoV2-NLuc) does the source give for CC1(C)CC(=O)O[C@H]2[C@@H](OC(=O)C1)[C@](C#N)(c1ccc3c(N)ncnn13)O[C@@H]2COC(=O)OCC1(C#N)CC1 [Compound C41, ((7aR,8R,10R,10aR)-10-(4-aminopyrrolo[2,1-f][1,2,4]triazin-7-yl)-10-cyano-4,4-dimethyl-2,6-dioxooctahydro-2H-furo[3,4-b][1,4]dioxonin-8-yl)methyl ((1-cyanocyclopropyl)methyl) carbonate] here?
Answer: > 50000 nM

Question: And the EC50 (RSV-Luc5)?
Answer: > 50000 nM

Question: What about the CC50 (in vitro [1]) of the same compound?
Answer: > 50 µM

Question: What about the half-life at 2 μM (in vitro [2]) of the same compound?
Answer: 4.17 min

Question: What about the “Caco2 A to B” value [3] of the same compound?
Answer: 0.54

Question: What about the “Caco2 B to A” value [3] of the same compound?
Answer: 6.77

Question: With CC1(C)CC(=O)O[C@H]2[C@@H](OC(=O)C1)[C@](C#N)(c1ccc3c(N)ncnn13)O[C@@H]2COC(=O)OC(C)(C)C(F)F [Compound C42, ((7aR,8R,10R,10aR)-10-(4-aminopyrrolo[2,1-f][1,2,4]triazin-7-yl)-10-cyano-4,4-dimethyl-2,6-dioxooctahydro-2H-furo[3,4-b][1,4]dioxonin-8-yl)methyl (1,1-difluoro-2-methylpropan-2-yl) carbonate] as the compound, how does the EC50 (SARS-CoV2-NLuc) read?
Answer: > 50000 nM

Question: And the EC50 (RSV-Luc5)?
Answer: > 50000 nM

Question: And the CC50 (in vitro [1])?
Answer: > 50 µM

Question: What about the half-life at 2 μM (in vitro [2]) of the same compound?
Answer: 27.7 min

Question: Which EC50 (SARS-CoV2-NLuc) does the source give for CCOC(=O)C(C)(C)OC(=O)OC[C@H]1O[C@@](C#N)(c2ccc3c(N)ncnn23)[C@@H]2OC(=O)CC(C)(C)CC(=O)O[C@@H]21 [Compound C43, ethyl 2-(((((7aR,8R,10R,10aR)-10-(4-aminopyrrolo[2,1-f][1,2,4]triazin-7-yl)-10-cyano-4,4-dimethyl-2,6-dioxooctahydro-2H-furo[3,4-b][1,4]dioxonin-8-yl)methoxy)carbonyl)oxy)-2-methylpropanoate] here?
Answer: > 50000 nM

Question: And the EC50 (RSV-Luc5)?
Answer: > 50000 nM

Question: What about the CC50 (in vitro [1]) of the same compound?
Answer: > 50 µM

Question: What about the half-life at 2 μM (in vitro [2]) of the same compound?
Answer: 19.7 min

Question: What about the “Caco2 A to B” value [3] of the same compound?
Answer: 2.93

Question: And the “Caco2 B to A” value [3]?
Answer: 11.62

Question: Which EC50 (SARS-CoV2-NLuc) does the source give for CC1(C)CC(=O)O[C@H]2[C@@H](OC(=O)C1)[C@](C#N)(c1ccc3c(N)ncnn13)O[C@@H]2COC(=O)O[C@H]1C(C)(C)[C@H]2CC[C@@]1(C)C2 [Compound C45, ((7aR,8R,10R,10aR)-10-(4-aminopyrrolo[2,1-f][1,2,4]triazin-7-yl)-10-cyano-4,4-dimethyl-2,6-dioxooctahydro-2H-furo[3,4-b][1,4]dioxonin-8-yl)methyl ((1S,2R,4S)-1,3,3-trimethylbicyclo[2.2.1]heptan-2-yl) carbonate] here?
Answer: 9170 nM

Question: And the EC50 (RSV-Luc5)?
Answer: 4160 nM

Question: What about the CC50 (in vitro [1]) of the same compound?
Answer: 12.6 µM

Question: And the half-life at 2 μM (in vitro [2])?
Answer: 37.3 min

Question: With CC(C)(C)COC(=O)OC[C@H]1O[C@@](C#N)(c2ccc3c(N)ncnn23)[C@@H]2OC(=O)CC(C)(C)CC(=O)O[C@@H]21 [Compound C46, ((7aR,8R,10R,10aR)-10-(4-aminopyrrolo[2,1-f][1,2,4]triazin-7-yl)-10-cyano-4,4-dimethyl-2,6-dioxooctahydro-2H-furo[3,4-b][1,4]dioxonin-8-yl)methyl neopentyl carbonate] as the compound, how does the EC50 (SARS-CoV2-NLuc) read?
Answer: > 50000 nM

Question: What about the EC50 (RSV-Luc5) of the same compound?
Answer: 11700 nM

Question: What about the CC50 (in vitro [1]) of the same compound?
Answer: > 50 µM

Question: And the half-life at 2 μM (in vitro [2])?
Answer: 4.71 min

Question: With N#C[C@@]1(c2ccc3c(N)ncnn23)O[C@H](COC(=O)OC2CNC2)[C@H]2OC(=O)CCCC(=O)O[C@H]21 [Compound C50, ((7aR,8R,10R,10aR)-10-(4-aminopyrrolo[2,1-f][1,2,4]triazin-7-yl)-10-cyano-2,6-dioxooctahydro-2H-furo[3,4-b][1,4]dioxonin-8-yl)methyl azetidin-3-yl carbonate 2,2,2-trifluoroacetate] as the compound, how does the EC50 (SARS-CoV2-NLuc) read?
Answer: 3110 nM

Question: And the EC50 (RSV-Luc5)?
Answer: 14500 nM

Question: What about the CC50 (in vitro [1]) of the same compound?
Answer: > 50 µM

Question: And the half-life at 2 μM (in vitro [2])?
Answer: 1.91 min

Question: What does the source list for CC1(C)CC(=O)O[C@H]2[C@@H](OC(=O)C1)[C@](C#N)(c1ccc3c(N)ncnn13)O[C@@H]2COC(=O)OC1CNC1 [Compound C51, ((7aR,8R,10R,10aR)-10-(4-aminopyrrolo[2,1-f][1,2,4]triazin-7-yl)-10-cyano-4,4-dimethyl-2,6-dioxooctahydro-2H-furo[3,4-b][1,4]dioxonin-8-yl)methyl azetidin-3-yl carbonate 2,2,2-trifluoroacetate]?
Answer: EC50 (SARS-CoV2-NLuc): > 50000 nM; EC50 (RSV-Luc5): > 50000 nM; CC50 (in vitro [1]): > 50 µM; half-life at 2 μM (in vitro [2]): 26.6 min

Question: With N#C[C@@]1(c2ccc3c(N)ncnn23)O[C@H](COC(=O)C2CCC2)[C@H]2OC(=O)CCCC(=O)O[C@H]21 [Compound C57, ((7aR,8R,10R,10aR)-10-(4-aminopyrrolo[2,1-f][1,2,4]triazin-7-yl)-10-cyano-2,6-dioxooctahydro-2H-furo[3,4-b][1,4]dioxonin-8-yl)methyl cyclobutanecarboxylate] as the compound, how does the EC50 (SARS-CoV2-NLuc) read?
Answer: 3000 nM

Question: What about the EC50 (RSV-Luc5) of the same compound?
Answer: 3780 nM

Question: And the CC50 (in vitro [1])?
Answer: > 50 µM

Question: What about the half-life at 2 μM (in vitro [4]) of the same compound?
Answer: 7.33 min
